Assay results reported in ChEMBL document CHEMBL1201862, “PubChem BioAssay data set” (2004).
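Interpolation was linear, between the two tested concentrations surrounding the appropriate level; five concentrations were tested over 48 hours in 96-well plates. GI50 marks 50% less growth.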 Activity calls are given as the source filed them. Cut-off read from the data, not from the text of the source: active = GI50 up to about 1.1 µM and inactive = higher.

Assays:
Experiment in all cases: NCI tumour cell line growth inhibition, 48 h
[1] = tested on: NCI/ADR-RES
[2] = tested on: Hs-578T
[3] = tested on: Malme-3M
[4] = tested on: SK-MEL-5
[5] = tested on: MDA-MB-435
[6] = tested on: MDA-N
[7] = tested on: PC-3
[8] = tested on: IGROV-1
[9] = tested on: SN12C
[10] = tested on: NCI-H226
[11] = tested on: SNB-75
[12] = tested on: HCT-116
[13] = tested on: M14
[14] = tested on: A498
[15] = tested on: BT-549
[16] = tested on: HOP-92
[17] = tested on: 786-0
[18] = tested on: NCI-H522
[19] = tested on: TK-10
[20] = tested on: COLO 205

Row | SMILES | GI50 [1] | GI50 [2] | GI50 [3] | GI50 [4] | GI50 [5] | GI50 [6] | GI50 [7] | GI50 [8] | GI50 [9] | GI50 [10] | GI50 [11] | GI50 [12] | GI50 [13] | GI50 [14] | GI50 [15] | GI50 [16] | GI50 [17] | GI50 [18] | GI50 [19] | GI50 [20]
1 | Cn1c(=O)c2nc(CCCCc3nc4c(=O)n(C)c(=S)n(C)c4[nH]3)[nH]c2n(C)c1=S | > 100 µM (inactive) | > 100 µM (inactive) | > 100 µM (inactive) | > 100 µM (inactive) | > 100 µM (inactive) | > 100 µM (inactive) | > 100 µM (inactive) | > 100 µM (inactive) | > 100 µM (inactive) | > 100 µM (inactive) | 23.4 µM (inactive) | > 100 µM (inactive) | > 100 µM (inactive) | > 100 µM (inactive) | > 100 µM (inactive) | 45.7 µM (inactive) | > 100 µM (inactive) | > 100 µM (inactive) | > 100 µM (inactive) | > 100 µM (inactive)
2 | CC(C)C[C@H](NC(=O)CCc1cccc2ccccc12)B(O)O | 1.95 µM (inactive) | 0.857 µM (active) | 0.871 µM (active) | 0.457 µM (active) | 0.31 µM (active) | 0.452 µM (active) | 3.9 µM (inactive) | 2.13 µM (inactive) | 2.19 µM (inactive) | 0.161 µM (active) | 7.98 µM (inactive) | 0.473 µM (active) | 0.942 µM (active) | 0.497 µM (active) | 0.506 µM (active) | 2.17 µM (inactive) | 0.923 µM (active) | 1.24 µM (inactive) | 0.578 µM (active) | 4.59 µM (inactive)
3 | COc1cc(S(=O)(=O)Nc2nc(-c3ccc(/N=C/c4ccccc4O)cc3)cs2)ccc1Cl | 50.5 µM (inactive) | 38.2 µM (inactive) | 40.3 µM (inactive) | 26 µM (inactive) | 54.5 µM (inactive) | 30.5 µM (inactive) | 39.1 µM (inactive) | 31.4 µM (inactive) | 17.9 µM (inactive) | 44.2 µM (inactive) | 51.1 µM (inactive) | 29.4 µM (inactive) | 30.1 µM (inactive) | 41.7 µM (inactive) | 37.4 µM (inactive) | 29 µM (inactive) | 48.2 µM (inactive) | 33.7 µM (inactive) | 74.3 µM (inactive) | 25.7 µM (inactive)
4 | COP(=O)(OC)/C(=C/c1cn(C(c2ccccc2)(c2ccccc2)c2ccccc2)cn1)NC=O | 17.3 µM (inactive) | 16 µM (inactive) | 18.6 µM (inactive) | 13.7 µM (inactive) | 18.1 µM (inactive) | 19.2 µM (inactive) | 17 µM (inactive) | 20.5 µM (inactive) | 19.2 µM (inactive) | 29.5 µM (inactive) | 5.92 µM (inactive) | 13.8 µM (inactive) | 15.1 µM (inactive) | 16.6 µM (inactive) | 16 µM (inactive) | 18 µM (inactive) | 29.4 µM (inactive) | 15.5 µM (inactive) | 22.5 µM (inactive) | 15.4 µM (inactive)
5 | C[C@@H](NC(=O)c1ccc(CNC(=O)/C=C/c2cccc(Oc3ccccc3)c2)cc1)c1ccccc1 | > 100 µM (inactive) | 7.33 µM (inactive) | > 76.2 µM (inactive) | 99.8 µM (inactive) | > 100 µM (inactive) | > 100 µM (inactive) | > 42.4 µM (inactive) | 48.1 µM (inactive) | > 100 µM (inactive) | 28.4 µM (inactive) | 6.18 µM (inactive) | > 69.3 µM (inactive) | 99.1 µM (inactive) | 31 µM (inactive) | > 94 µM (inactive) | 59.7 µM (inactive) | 13.9 µM (inactive) | > 66.7 µM (inactive) | 24.9 µM (inactive) | > 100 µM (inactive)
6 | CC(=O)OCC1OC(n2c3c(c(-c4ccc(Cl)cc4)c(C#N)c2=S)C(=O)CC(C)(C)C3)C(OC(C)=O)C(OC(C)=O)C1OC(C)=O (centres undefined) | 12 µM (inactive) | 20.7 µM (inactive) | 43.3 µM (inactive) | 11.7 µM (inactive) | 12.7 µM (inactive) | 11.5 µM (inactive) | 10.9 µM (inactive) | 40.7 µM (inactive) | 16 µM (inactive) | 27.5 µM (inactive) | 11.4 µM (inactive) | 19.1 µM (inactive) | 27.5 µM (inactive) | 30.3 µM (inactive) | 3.14 µM (inactive) | 18.5 µM (inactive) | 12.8 µM (inactive) | 4.94 µM (inactive) | > 100 µM (inactive) | 25 µM (inactive)
7 | COC(=O)c1ccccc1/C=C1\Cc2c(C)c3c(c(C)c2C1=O)CCC3 | > 100 µM (inactive) | 24.5 µM (inactive) | > 100 µM (inactive) | > 100 µM (inactive) | > 100 µM (inactive) | > 100 µM (inactive) | > 100 µM (inactive) | > 100 µM (inactive) | > 100 µM (inactive) | > 100 µM (inactive) | 63.7 µM (inactive) | > 100 µM (inactive) | > 100 µM (inactive) | > 100 µM (inactive) | > 100 µM (inactive) | > 100 µM (inactive) | 46.6 µM (inactive) | > 100 µM (inactive) | > 100 µM (inactive) | > 100 µM (inactive)
8 | COc1ccc(C(=O)N/N=C2\C(=O)c3c(C)cc(C)cc3CC2(C)C)cc1 | 22 µM (inactive) | 16.3 µM (inactive) | 14.9 µM (inactive) | 16.7 µM (inactive) | 17.9 µM (inactive) | 19.3 µM (inactive) | 22.2 µM (inactive) | 16.1 µM (inactive) | 18.4 µM (inactive) | 22.3 µM (inactive) | 21.4 µM (inactive) | 17.1 µM (inactive) | 19.8 µM (inactive) | 19.9 µM (inactive) | 18.6 µM (inactive) | 14.9 µM (inactive) | 18.6 µM (inactive) | 15.3 µM (inactive) | 54.2 µM (inactive) | 21.8 µM (inactive)
9 | COc1ccc2nccc(NCCCN3CCN(CCCNc4ccnc5ccc(OC)cc45)CC3)c2c1 | 18.2 µM (inactive) | 0.237 µM (active) | 0.644 µM (active) | 1.06 µM (active) | 0.427 µM (active) | 0.0881 µM (active) | 0.44 µM (active) | 0.283 µM (active) | 0.177 µM (active) | 0.255 µM (active) | 0.543 µM (active) | 0.221 µM (active) | 1.08 µM (active) | 2.58 µM (inactive) | 4.27 µM (inactive) | 0.226 µM (active) | 0.582 µM (active) | 0.0334 µM (active) | 5.31 µM (inactive) | 0.261 µM (active)
10 | COC(=O)C(Cc1ccccc1)NP(=O)(O)OCC1OC(n2cc(I)c(=O)[nH]c2=O)CC1O (centres undefined) | > 100 µM (inactive) | > 100 µM (inactive) | > 100 µM (inactive) | > 100 µM (inactive) | > 100 µM (inactive) | > 100 µM (inactive) | > 100 µM (inactive) | > 100 µM (inactive) | > 100 µM (inactive) | > 100 µM (inactive) | > 100 µM (inactive) | > 100 µM (inactive) | > 100 µM (inactive) | > 100 µM (inactive) | > 100 µM (inactive) | > 100 µM (inactive) | > 100 µM (inactive) | > 100 µM (inactive) | > 100 µM (inactive) | > 100 µM (inactive)
11 | CC(C)(C)C1CC[C@H](O)[C@H]([C@H](O)CC2CC(=O)N(c3ccccc3)C(=O)C2)C1 (some centres undefined) | > 100 µM (inactive) | > 100 µM (inactive) | > 100 µM (inactive) | > 100 µM (inactive) | > 100 µM (inactive) | > 100 µM (inactive) | > 100 µM (inactive) | > 100 µM (inactive) | > 100 µM (inactive) | > 100 µM (inactive) | > 100 µM (inactive) | > 100 µM (inactive) | > 100 µM (inactive) | > 100 µM (inactive) | > 100 µM (inactive) | 36.1 µM (inactive) | > 100 µM (inactive) | > 100 µM (inactive) | > 100 µM (inactive) | –
12 | Nc1nnc(-c2ccco2)c(-c2ccco2)n1 | > 100 µM (inactive) | > 100 µM (inactive) | > 100 µM (inactive) | > 100 µM (inactive) | > 100 µM (inactive) | > 100 µM (inactive) | > 100 µM (inactive) | > 100 µM (inactive) | > 100 µM (inactive) | > 100 µM (inactive) | 86.9 µM (inactive) | > 100 µM (inactive) | > 100 µM (inactive) | > 100 µM (inactive) | > 100 µM (inactive) | > 100 µM (inactive) | > 100 µM (inactive) | > 100 µM (inactive) | > 100 µM (inactive) | > 100 µM (inactive)
13 | O=C1CCc2ccc(O)c(c2)Oc2ccc(cc2)C(Sc2ccccc2)CCO1 (centres undefined) | 14.1 µM (inactive) | 14.7 µM (inactive) | 13.9 µM (inactive) | 12.1 µM (inactive) | 17.1 µM (inactive) | 16.2 µM (inactive) | 6.32 µM (inactive) | 13.3 µM (inactive) | 15.8 µM (inactive) | 15 µM (inactive) | 6.49 µM (inactive) | 16.2 µM (inactive) | 15.1 µM (inactive) | 17.4 µM (inactive) | 14.4 µM (inactive) | 10 µM (inactive) | 16 µM (inactive) | 13.2 µM (inactive) | 16 µM (inactive) | 17.3 µM (inactive)
